Laboratory results taken from paper PMC7349888, “Synthesis and Evaluation of Dodecaboranethiol Containing Kojic Acid (KA-BSH) as a Novel Agent for Boron Neutron Capture Therapy” (Cells, 2020).
“And” between values parts separate entries of the source, which are not always exact repeats. Identical values can stand only once.

Legend:
[1] = tested on: F98 rat glioma cells; test: Cell viability assay (WST-8) in F98 cells; assay type: cell-based; conditions: WST-8 test, read-out: IC50 (cytotoxicity)
Experimental: The cytotoxicity of KA-BSH was assayed using the water soluble tetrazolium (WST)-8 assay with a cell-counting kit (Wako Pure Chemicals, Osaka, Japan) following a modified version of the manufacturer-provided protocols. Relative cell survival was calculated according to Equation (1):(1) Relative cell survival (%)=absorbance value of compound treated well/absorbance value of untreated well×100

[2] = tested on: F98 glioma bearing rats; test: Biodistribution in F98 glioma bearing rats (ICP-AES); assay type: in vivo, rat; conditions: iv
Excerpt: All animal experimental procedures were approved by the Animal Use Review Board and Ethical Committee of Osaka Medical College (No. 25092, 28 October 2015) and Kyoto University Research Reactor Institute (KURRI, No. 25030-13, 1 April 2015), and performed following the Guide for the Care and Use of Laboratory Animals. Eight-week-old, male Fischer 344 rats weighing between 200 and 250 g were used (Japan SLC, Inc. Shizuoka, Japan). Rats were anesthetized with an intraperitoneal (ip) injection of a mixture of medetomidine 0.15 mg, midazolam 2 mg, and butorphanol 2.5 mg/kg body weight (bw). The head of each rat was fixed with a stereotactic frame (Model 900; David Kopf Instruments, Tujunga, CA, USA). The scalp was incised at the midline and a small burr hole was drilled into the skull (1 mm posterior and 4 mm right-lateral to the bregma), using an electric drill. And then, F98 glioma cells were injected into the brain using a 25 µL Hamilton microsyringe with a 26-gauge needle (model 1700 RN, Hamilton Bonaduz AG, Bonaduz, Switzerland). The needle was inserted at a 5 mm depth from the skull and F98 cells were diluted in 10 µL of DMEM containing low-gelling temperature agarose at a concentration of either 10^3 for therapeutic experiments or 10^5 cells for biodistribution experiments. They were injected over 30 s using an automatic infuser pump. The needle entry hole was immediately sealed with bone wax and the incised scalp was closed with 3-0 silk sutures (Ethicon, North Ryde, NSW). After surgery, all animals were given atipamezole hydrochloride (0.15 mg/kg bw, ip).
Biodistribution studies were performed in Fischer rats bearing intracerebral implants of F98 rat glioma cells. 10–13 days after tumor implantation of 10^5 F98 glioma cells, when signs of a progressively growing tumor were evident (weight loss, lethargy, hunching, and ataxia), biodistribution studies were initiated at which time the animals had tumors weighing 90–180 mg. […] To compare its biodistribution with that of BPA or BSH, another group of rats received an iv injection of BPA at a concentration of 10 mg ^10B/kg bw or BSH at a concentration of 30 mg ^10B/kg bw. Biodistribution was determined 1 and 3 h after termination of iv injection. Animals were euthanized by an overdose of sevoflurane following which tumors and normal tissues, consisting of ipsilateral brain, contralateral brain, blood, heart, lung, liver, spleen, kidney, skin, and muscle, were removed and weighed for ^10B determination by ICP-AES.

S-(2-(5-hydroxy-4-oxo-4H-pyran-2-yl) methyl) Thioundecahydro-Closo- Dodecaborate (2-) Disodium Salt [KA-BSH]
IC50 [1]: 10.4 mM | 10B concentration, Blood ([2]; 10 mg 10B/kg, 1 h): 4.71 µg 10B/g | 10B concentration, Contralateral brain ([2]; 10 mg 10B/kg, 1 h): 0.24 µg 10B/g | 10B concentration, Heart ([2]; 10 mg 10B/kg, 1 h): 1.18 µg 10B/g | 10B concentration, Ipsilateral brain ([2]; 10 mg 10B/kg, 1 h): 0.29 µg 10B/g | 10B concentration, Liver ([2]; 10 mg 10B/kg, 1 h): 5.15 µg 10B/g | 10B concentration, Lung ([2]; 10 mg 10B/kg, 1 h): 4.31 µg 10B/g | 10B concentration, Muscle ([2]; 10 mg 10B/kg, 1 h): 0.63 µg 10B/g | 10B concentration, Skin ([2]; 10 mg 10B/kg, 1 h): 1.79 µg 10B/g | 10B concentration, Spleen ([2]; 10 mg 10B/kg, 1 h): 14.34 µg 10B/g | 10B concentration, Tumor ([2]; 10 mg 10B/kg, 1 h): 1.42 µg 10B/g and 1.42 ± 0.28 µg 10B/g | T/Bl (tumor to blood ratio) ([2]; 10 mg 10B/kg, 1 h): 0.31 | T/Br (tumor to normal contralateral brain ratio) ([2]; 10 mg 10B/kg, 1 h): 5.99 | 10B concentration, Blood ([2]; 10 mg 10B/kg, 3 h): 1.26 µg 10B/g | 10B concentration, Contralateral brain ([2]; 10 mg 10B/kg, 3 h): 0.09 µg 10B/g | 10B concentration, Heart ([2]; 10 mg 10B/kg, 3 h): 0.29 µg 10B/g | 10B concentration, Ipsilateral brain ([2]; 10 mg 10B/kg, 3 h): 0.10 µg 10B/g | 10B concentration, Liver ([2]; 10 mg 10B/kg, 3 h): 4.13 µg 10B/g | 10B concentration, Lung ([2]; 10 mg 10B/kg, 3 h): 0.74 µg 10B/g | 10B concentration, Muscle ([2]; 10 mg 10B/kg, 3 h): 0.19 µg 10B/g | 10B concentration, Skin ([2]; 10 mg 10B/kg, 3 h): 0.45 µg 10B/g | 10B concentration, Spleen ([2]; 10 mg 10B/kg, 3 h): 16.07 µg 10B/g | 10B concentration, Tumor ([2]; 10 mg 10B/kg, 3 h): 0.85 µg 10B/g | T/Bl (tumor to blood ratio) ([2]; 10 mg 10B/kg, 3 h): 0.69 | T/Br (tumor to normal contralateral brain ratio) ([2]; 10 mg 10B/kg, 3 h): 9.52 | 10B concentration, Blood ([2]; 20 mg 10B/kg, 1 h): 8.76 µg 10B/g | 10B concentration, Contralateral brain ([2]; 20 mg 10B/kg, 1 h): 0.24 µg 10B/g | 10B concentration, Heart ([2]; 20 mg 10B/kg, 1 h): 2.10 µg 10B/g | 10B concentration, Ipsilateral brain ([2]; 20 mg 10B/kg, 1 h): 0.31 µg 10B/g | 10B concentration, Liver ([2]; 20 mg 10B/kg, 1 h): 10.25 µg 10B/g | 10B concentration, Lung ([2]; 20 mg 10B/kg, 1 h): 6.11 µg 10B/g | 10B concentration, Muscle ([2]; 20 mg 10B/kg, 1 h): 2.35 µg 10B/g | 10B concentration, Skin ([2]; 20 mg 10B/kg, 1 h): 3.56 µg 10B/g | 10B concentration, Spleen ([2]; 20 mg 10B/kg, 1 h): 10.30 µg 10B/g | 10B concentration, Tumor ([2]; 20 mg 10B/kg, 1 h): 2.96 µg 10B/g | T/Bl (tumor to blood ratio) ([2]; 20 mg 10B/kg, 1 h): 0.34 | T/Br (tumor to normal contralateral brain ratio) ([2]; 20 mg 10B/kg, 1 h): 13.21 | 10B concentration, Blood ([2]; 20 mg 10B/kg, 3 h): 1.54 µg 10B/g | 10B concentration, Contralateral brain ([2]; 20 mg 10B/kg, 3 h): 0.09 µg 10B/g | 10B concentration, Heart ([2]; 20 mg 10B/kg, 3 h): 0.39 µg 10B/g | 10B concentration, Ipsilateral brain ([2]; 20 mg 10B/kg, 3 h): 0.14 µg 10B/g | 10B concentration, Liver ([2]; 20 mg 10B/kg, 3 h): 5.40 µg 10B/g | 10B concentration, Lung ([2]; 20 mg 10B/kg, 3 h): 1.37 µg 10B/g | 10B concentration, Muscle ([2]; 20 mg 10B/kg, 3 h): 0.24 µg 10B/g | 10B concentration, Skin ([2]; 20 mg 10B/kg, 3 h): 0.57 µg 10B/g | 10B concentration, Spleen ([2]; 20 mg 10B/kg, 3 h): 8.44 µg 10B/g | 10B concentration, Tumor ([2]; 20 mg 10B/kg, 3 h): 1.47 µg 10B/g | T/Bl (tumor to blood ratio) ([2]; 20 mg 10B/kg, 3 h): 1.12 | T/Br (tumor to normal contralateral brain ratio) ([2]; 20 mg 10B/kg, 3 h): 21.07 | 10B concentration in blood ([2]; 30 mg 10B/kg, 1 h): 14.21 ± 3.17 µg/mL | 10B concentration, Blood ([2]; 30 mg 10B/kg, 1 h): 14.21 µg 10B/g | 10B concentration, Contralateral brain ([2]; 30 mg 10B/kg, 1 h): 0.45 µg 10B/g | 10B concentration, Heart ([2]; 30 mg 10B/kg, 1 h): 3.45 µg 10B/g | 10B concentration, Ipsilateral brain ([2]; 30 mg 10B/kg, 1 h): 0.63 µg 10B/g | 10B concentration, Liver ([2]; 30 mg 10B/kg, 1 h): 10.33 ± 2.61 µg 10B/g and 10.33 µg 10B/g | 10B concentration, Lung ([2]; 30 mg 10B/kg, 1 h): 9.27 µg 10B/g | 10B concentration, Muscle ([2]; 30 mg 10B/kg, 1 h): 2.26 µg 10B/g | 10B concentration, Skin ([2]; 30 mg 10B/kg, 1 h): 7.25 µg 10B/g | 10B concentration, Spleen ([2]; 30 mg 10B/kg, 1 h): 3.77 µg 10B/g | 10B concentration, Tumor ([2]; 30 mg 10B/kg, 1 h): 6.65 µg 10B/g and 6.65 ± 0.25 µg 10B/g | T/Bl (tumor to blood ratio) ([2]; 30 mg 10B/kg, 1 h): 0.49 | T/Br (tumor to normal contralateral brain ratio) ([2]; 30 mg 10B/kg, 1 h): 15.27 | 10B concentration in blood ([2]; 30 mg 10B/kg, 3 h): 2.35 ± 1.37 µg/mL | 10B concentration, Blood ([2]; 30 mg 10B/kg, 3 h): 2.35 µg 10B/g | 10B concentration, Contralateral brain ([2]; 30 mg 10B/kg, 3 h): 0.14 µg 10B/g | 10B concentration, Heart ([2]; 30 mg 10B/kg, 3 h): 0.56 µg 10B/g | 10B concentration, Ipsilateral brain ([2]; 30 mg 10B/kg, 3 h): 0.35 µg 10B/g | 10B concentration, Liver ([2]; 30 mg 10B/kg, 3 h): 4.19 ± 1.79 µg 10B/g and 4.19 µg 10B/g | 10B concentration, Lung ([2]; 30 mg 10B/kg, 3 h): 2.26 µg 10B/g | 10B concentration, Muscle ([2]; 30 mg 10B/kg, 3 h): 0.32 µg 10B/g | 10B concentration, Skin ([2]; 30 mg 10B/kg, 3 h): 1.06 µg 10B/g | 10B concentration, Spleen ([2]; 30 mg 10B/kg, 3 h): 5.68 µg 10B/g | 10B concentration, Tumor ([2]; 30 mg 10B/kg, 3 h): 2.91 µg 10B/g | T/Bl (tumor to blood ratio) ([2]; 30 mg 10B/kg, 3 h): 1.58 | T/Br (tumor to normal contralateral brain ratio) ([2]; 30 mg 10B/kg, 3 h): 23.09 | clearance from normal tissues ([2]; 1 vs 3 h): rapid clearance from normal tissues | 10B Concentrations, Brain (Table 1) ([2]; 1 h, used for dose estimation): 0.3 μg 10B/g | 10B Concentrations, Tumor (Table 1) ([2]; 1 h, used for dose estimation): 1.4 μg 10B/g
